Each block holds one compound with its values, some of them ahead of it. The source made the active and inactive calls. No cut-off for these calls is given here.
Assays:
[1] = (§1) Induction of neurogenesis in human H9-derived neuronal progenitor cells at 10 uM assessed as increase in Tuj1 positive cells; type: functional, Neuronal progenitor cell
Neuronal progenitor cell [2] = test: as §1; type: functional
[3] = Toxicity in human H9-derived neuronal progenitor cells at 0.1 to 10 uM assessed as increase in DAPI positive cells; type: cell-based; details: neuronal progenitor cell
Neuronal progenitor cell [4] = test: Induction of neurogenesis in human H9-derived neuronal progenitor cells at 0.3125 to 10 uM assessed as increase in Tuj1 protein levels incubated for 5 days by Western blotting method; type: functional
[5] = Induction of neurogenesis in human H9-derived neuronal progenitor cells at 0.1 to 10 uM assessed as increase in Tuj1 positive cells; type: functional, Neuronal progenitor cell
[6] = Toxicity in mouse neuronal progenitor cells at 0.1 to 10 uM assessed as increase in DAPI positive cells; type: cell-based; details: neuronal progenitor cell
[7] = Induction of neurogenesis in mouse neuronal progenitor cells at 0.1 to 10 uM assessed as increase in Tuj1 positive cells; type: functional, Neuronal progenitor cell
[8] = Ratio of drug level in brain to plasma in mouse; type: ADME, organism-based; details: read-out: BPR
[9] = Unbound fraction in C57BL/6 mouse brain; type: ADME, tissue-based; details: brain tissue
[10] = Cmax in C57BL/6 mouse plasma at 1.81 mg/kg, po; type: ADME, organism-based; design: dose 1.81 mg/kg, route oral
[11] = Tmax in C57BL/6 mouse plasma at 1.81 mg/kg, po; type: ADME, organism-based
[12] = Tmax in C57BL/6 mouse brain at 1.81 mg/kg, po; type: ADME, organism-based
Plasma [13] = test: Plasma concentration in C57BL/6 mouse at 13.4 mg/kg, ip; type: ADME, organism-based; details: in vivo
[14] = Cmax in C57BL/6 mouse plasma at 13.4 mg/kg, ip; type: ADME, organism-based; design: dose 13.4 mg/kg, route intraperitoneal
Plasma [15] = test: Dose normalized AUC in C57BL/6 mouse plasma at 13.4 mg/kg, ip; type: ADME, organism-based; details: in vivo
Brain [16] = test: Dose normalized AUC in C57BL/6 mouse brain at 1.81 mg/kg, po; type: ADME, organism-based; details: in vivo
[17] = Half life in C57BL/6 mouse plasma at 13.4 mg/kg, ip; type: ADME, organism-based
[18] = AUC (0 to t) in C57BL/6 mouse brain at 1.81 mg/kg, po; type: ADME, organism-based
[19] = AUC (0 to t) in C57BL/6 mouse plasma at 1.81 mg/kg, po; type: ADME, organism-based
Mus musculus [20] = test: Induction of neurogenesis in C57BL/6 mouse assessed as increase in BrdU+NeuN+/BrdU+ cells in dentate gyrus at 8.5 mg/kg, ip qd for 7 days and measured on day 14 by immunohistochemistry relative to control; type: functional
[21] = Cmax in C57BL/6 mouse brain at 1.81 mg/kg, po; type: ADME, organism-based; design: dose 1.81 mg/kg, route oral
Mus musculus [22] = test: Induction of neurogenesis in C57BL/6 mouse assessed as increase in BrdU+NeuN+/BrdU+ cells in dentate gyrus at 8.5 mg/kg, ip qd for 7 days and measured on day 14 by immunohistochemistry relative to vehicle control; type: functional
[23] = Tmax in C57BL/6 mouse plasma at 13.4 mg/kg, ip; type: ADME, organism-based
Brain [24] = test: Drug concentration in C57BL/6 mouse brain at 13.4 mg/kg, ip; type: ADME, organism-based; details: in vivo, read-out: Drug uptake
[25] = AUC (0 to t) in C57BL/6 mouse plasma at 13.4 mg/kg, ip; type: ADME, organism-based
Plasma [26] = test: Dose normalized AUC in C57BL/6 mouse plasma at 1.81 mg/kg, po; type: ADME, organism-based; details: in vivo
[27] = Ratio of drug level in brain to plasma in C57BL/6 mouse at 1.81 mg/kg, po; type: ADME, organism-based; details: read-out: BPR

Structure (SMILES): O=C1[C@H]2Cc3ccc(OCc4cccc(N5CCOCC5)c4)cc3CN2C(=O)CN1C1CCCC1
fold change (FC) [1]: 2.06

Structure (SMILES): CCOC(=O)C[C@H]1CC[C@H](N2CC(=O)N3Cc4cc(OCc5cccc(C#N)c5)ccc4C[C@@H]3C2=O)CC1
fold change (FC) [1]: 1.69

Structure (SMILES): O=C1[C@H]2Cc3ccc(OCc4cccc(Cl)c4)cc3CN2C(=O)CN1C1CCCC1
fold change (FC) [1]: 2.29

Structure (SMILES): CCN(Cc1cccc(C#N)c1)c1ccc2c(c1)CN1C(=O)CN(C3CCCCC3)C(=O)[C@H]1C2
fold change (FC) [1]: 1.45

Structure (SMILES): CCNC(=O)c1cccc(COc2ccc3c(c2)CN2C(=O)CN(C4CCCC4)C(=O)[C@H]2C3)c1
fold change (FC) [1]: 1.65

Structure (SMILES): N#Cc1cccc(CNc2ccc3c(c2)CN2C(=O)CN(C4CCCCC4)C(=O)[C@H]2C3)c1
fold change (FC) [1]: 1.53

Structure (SMILES): CN(Cc1cccc(C#N)c1)c1ccc2c(c1)CN1C(=O)CN(C3CCCCC3)C(=O)[C@H]1C2
fold change (FC) [1]: 1.67

Structure (SMILES): N#Cc1cccc(COc2ccc3c(c2)CN2C(=O)CN(C4CCNCC4(F)F)C(=O)[C@H]2C3)c1 (stereo not given in full)
fold change (FC) [1]: 1.78

Structure (SMILES): COC[C@@H]1C(=O)N2Cc3cc(OCc4cccc(C#N)c4)ccc3C[C@@H]2C(=O)N1C1CCCC1
fold change (FC) [1]: 2.36

Structure (SMILES): O=C1[C@H]2Cc3ccc(OCc4cccc(F)c4)cc3CN2C(=O)CN1C1CCCC1
fold change (FC) [1]: 1.83

Structure (SMILES): C[C@H]1C(=O)N2Cc3cc(OCc4cccc(C#N)c4)ccc3C[C@@H]2C(=O)N1C1CCCC1
fold change (FC) [1]: 1.98

Structure (SMILES): N#Cc1cccc(COc2ccc3c(c2)CN2C(=O)CN(C4CCN(CCF)CC4)C(=O)[C@H]2C3)c1
fold change (FC) [1]: 1.91

Structure (SMILES): N#Cc1cccc(COc2ccc3c(c2)CN2C(=O)[C@H](CO)N(C4CCCC4)C(=O)[C@H]2C3)c1
fold change (FC) (Neuronal progenitor cell [2]): inactive

Structure (SMILES): N#Cc1cccc(COc2ccc3c(c2)CN2C(=O)CN(C4CCNCC4)C(=O)[C@H]2C3)c1
fold change (FC) (Neuronal progenitor cell [2]): inactive

Structure (SMILES): N#Cc1cccc(COc2ccc3c(c2)CN2C(=O)CN(C4CCCC4)C(=O)[C@@H]2C3)c1
fold change (FC) (Neuronal progenitor cell [2]): inactive

Structure (SMILES): O=C1[C@H]2Cc3ccc(OCc4ccc(Cl)cc4)cc3CN2C(=O)CN1C1CCCC1
fold change (FC) [1]: 2.09

Kp [8]: 0.5
Structure (SMILES): N#Cc1cccc(COc2ccc3c(c2Br)CN2C(=O)CN(C4CCCC4)C(=O)[C@H]2C3)c1
Activity [3]: Non-toxic
Activity (Neuronal progenitor cell [4]): Dose-dependent effect
fold change (FC) [5]: 1.8
Activity [6]: Non-toxic
fold change (FC) [1]: 1.9
fold change (FC) [7]: 1.2

Structure (SMILES): N#Cc1csc(COc2ccc3c(c2)CN2C(=O)CN(C4CCCC4)C(=O)[C@H]2C3)c1
fold change (FC) [1]: 1.74

Structure (SMILES): N#Cc1cccc(COc2ccc3c(c2)CN2C(=O)CN(CC4CC4)C(=O)[C@H]2C3)c1
fold change (FC) [1]: 1.57

Structure (SMILES): N#Cc1cccc(COc2ccc3c(c2)CN2C(=O)CN(C4CCOCC4)C(=O)[C@H]2C3)c1
fold change (FC) (Neuronal progenitor cell [2]): inactive

Structure (SMILES): COC[C@H]1C(=O)N2Cc3cc(OCc4cccc(C#N)c4)ccc3C[C@@H]2C(=O)N1C1CCCC1
fold change (FC) [1]: 1.55

Structure (SMILES): N#Cc1cccc(COc2ccc3c(c2)CN2C(=O)CN(C4CCN(CC(F)F)CC4)C(=O)[C@H]2C3)c1
fold change (FC) (Neuronal progenitor cell [2]): inactive

Structure (SMILES): N#Cc1cccc(COc2ccc3c(c2)CN2C(=O)[C@@H](CO)N(C4CCCC4)C(=O)[C@H]2C3)c1
fold change (FC) [1]: 2.36

Structure (SMILES): N#Cc1cccc(OCc2ccc3c(c2)CN2C(=O)CN(C4CCCC4)C(=O)[C@H]2C3)c1
fold change (FC) [1]: 2

Structure (SMILES): C[C@@H]1C(=O)N2Cc3cc(OCc4cccc(C#N)c4)ccc3C[C@@H]2C(=O)N1C1CCCC1
fold change (FC) [1]: 2.41

Structure (SMILES): O=C1[C@H]2Cc3ccc(OCc4ccccc4)cc3CN2C(=O)CN1C1CCCC1
fold change (FC) [1]: 2.07

Structure (SMILES): N#Cc1cccc(COc2ccc3c(c2)CN2C(=O)CN(C4CCN(CC(F)(F)F)CC4)C(=O)[C@H]2C3)c1
fold change (FC) (Neuronal progenitor cell [2]): inactive

fraction unbound [9]: 0.02
Cmax [10]: 126 ng/mL
Tmax [11]: 1 h
Tmax [12]: 1 h
concentration (Plasma [13]): 8.4 µM
Cmax [14]: 3500 ng/mL
AUC/dose (Plasma [15]): 794 ng·h/mL/mg/kg
AUC/dose (Brain [16]): 155 ng·h/mL/mg/kg
half-life [17]: 4.95 h
AUC(0-t) [18]: 280 ng·h/mL
AUC(0-t) [19]: 534 ng·h/mL
Cmax [21]: 92 ng/mL
Tmax [23]: 0.25 h
concentration (Brain [24]): 6.1 µM
AUC(0-t) [25]: 10500 ng·h/mL
AUC/dose (Plasma [26]): 296 ng·h/mL/mg/kg
Kp [27]: 0.1
Structure (SMILES): N#Cc1cccc(COc2ccc3c(c2)CN2C(=O)CN(C4CCCC4)C(=O)[C@H]2C3)c1
fold change (FC) (Mus musculus [20]): 1.3
Activity (Mus musculus [22]): 11.7%
fold change (FC) [1]: 2.35

Structure (SMILES): N#Cc1cccc(COc2ccc3c(c2)CN2C(=O)CN(C4CCCCC4)C(=O)[C@H]2C3)c1
fold change (FC) [1]: 2.02

Structure (SMILES): N#Cc1cccc(COc2ccc3c(c2)CN2C(=O)CN(CC4CCC4)C(=O)[C@H]2C3)c1
fold change (FC) [1]: 2.12

Reference: ChEMBL document CHEMBL3603820, “Discovery of a novel 2,3,11,11a-tetrahydro-1H-pyrazino[1,2-b]isoquinoline-1,4(6H)-dione series promoting neurogenesis of human neural progenitor cells” (Bioorg Med Chem Lett, 2015)
